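Exposure lasted 48 hours, with cells grown in 96-well plates and compounds tested at five concentrations. Here, GI50 denotes the concentration required for 50% inhibition of growth.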 Activity calls are given as the source filed them. No stated cut-off is given here; in the data, active = GI50 up to about 1.1 µM and inactive = higher.
Assays:
Test in all cases: DTP human tumour cell line panel, 48 h
[1] = system: 786-0
[2] = system: A549
[3] = system: ACHN
[4] = system: CAKI-1
[5] = system: CCRF-CEM
[6] = system: COLO 205
[7] = system: DLD-1
[8] = system: DMS-114
[9] = system: DMS-273
[10] = system: EKVX
[11] = system: HCC 2998
[12] = system: HCT-116
[13] = system: HCT-15
[14] = system: HL-60
[15] = system: HOP-18
[16] = system: HOP-62
[17] = system: HOP-92
[18] = system: HT-29
[19] = system: IGROV-1
[20] = system: K562
[21] = system: KM-20L2
[22] = system: KM12
[23] = system: LOX IMVI
[24] = system: LXFL 529
[25] = system: M14
[26] = system: M19-MEL
[27] = system: MOLT-4
[28] = system: Malme-3M
[29] = system: NCI-H226
[30] = system: NCI-H23
[31] = system: NCI-H460
[32] = system: NCI-H522
[33] = system: OVCAR-3
[34] = system: OVCAR-4
[35] = system: OVCAR-8
[36] = system: RPMI-8226
[37] = system: RXF 393
[38] = system: SF-268
[39] = system: SF-295
[40] = system: SF-539
[41] = system: SK-MEL-28
[42] = system: SK-MEL-2
[43] = system: SK-MEL-5
[44] = system: SK-OV-3
[45] = system: SN12C
[46] = system: SNB-19
[47] = system: SNB-75
[48] = system: SNB-78
[49] = system: SR
[50] = system: SW-620
[51] = system: TK-10
[52] = system: U-251
[53] = system: UACC-62
[54] = system: UO-31
[55] = system: XF498
[56] = system: A498
[57] = system: RXF 631
[58] = system: OVCAR-5
[59] = system: UACC-257

Measured: GI50

COc1ccc(-c2cc(O)c3cc4c(cc3n2)OCO4)c(OC)c1OC
> 100 µM: [13]
inactive: [1] > 100 µM | [2] > 100 µM | [3] 76.2 µM | [4] > 100 µM | [5] 76.9 µM | [6] 53.1 µM | [7] > 100 µM | [8] 29.4 µM | [9] 38.2 µM | [10] > 100 µM | [11] > 100 µM | [12] > 100 µM | [14] 37.3 µM | [15] 96.6 µM | [16] 87.1 µM | [17] 70.3 µM | [18] > 100 µM | [19] > 100 µM | [20] 43.9 µM | [21] > 100 µM | [22] 68.9 µM | [23] > 100 µM | [24] > 100 µM | [25] 68.1 µM | [26] 95.1 µM | [27] 62.7 µM | [28] 40.4 µM | [29] > 100 µM | [30] > 100 µM | [31] 33.6 µM | [32] 96.2 µM | [33] > 100 µM | [34] > 100 µM | [35] > 100 µM | [36] 82.8 µM | [37] > 100 µM | [38] > 100 µM | [39] 76.6 µM | [40] > 100 µM | [41] 96.6 µM | [42] > 100 µM | [43] 41.5 µM | [44] 50.8 µM | [45] > 100 µM | [46] > 100 µM | [47] 27.7 µM | [48] > 100 µM | [49] 24.4 µM | [50] 84.9 µM | [51] > 100 µM | [52] > 100 µM | [53] 47.6 µM | [54] > 100 µM | [55] 66.5 µM

Cn1nc(-c2ccccc2)c(C(=O)/C=C/c2ccc(Cl)cc2)c(N2CCOCC2)c1=O
active: [4] 0.652 µM | [27] 0.752 µM | [39] 0.412 µM
2.74 µM: [13]
inactive: [1] 2.87 µM | [56] 4.22 µM | [2] 3.89 µM | [3] 4.42 µM | [5] 2.45 µM | [6] 1.99 µM | [7] 2.96 µM | [8] 2.78 µM | [9] 3.3 µM | [10] 8.49 µM | [12] 1.85 µM | [14] 1.85 µM | [15] 4.48 µM | [16] 10.5 µM | [17] 2.11 µM | [18] 1.83 µM | [19] 4.22 µM | [20] 2.79 µM | [21] 3.45 µM | [23] 3.44 µM | [24] 2.92 µM | [25] 3.98 µM | [26] 5.24 µM | [30] 2.74 µM | [31] 2.64 µM | [32] 2.43 µM | [35] 4.13 µM | [36] 2.34 µM | [37] 2.34 µM | [57] 4.79 µM | [38] 3.48 µM | [40] 2.5 µM | [41] 2.58 µM | [43] 4.98 µM | [44] 5.51 µM | [45] 5.7 µM | [46] 14.3 µM | [50] 4.12 µM | [51] 7.94 µM | [52] 3.37 µM | [53] 3.27 µM | [54] 9.71 µM

NC(=O)C(=O)Cc1nc2ccccc2s1
inactive: [1] > 100 µM | [56] > 100 µM | [2] > 100 µM | [3] > 100 µM | [5] > 100 µM | [6] > 100 µM | [8] > 100 µM | [10] > 100 µM | [11] > 100 µM | [12] > 100 µM | [14] > 100 µM | [15] > 100 µM | [16] > 100 µM | [17] > 100 µM | [18] > 100 µM | [20] > 100 µM | [21] > 100 µM | [22] > 100 µM | [23] > 100 µM | [24] > 100 µM | [25] > 100 µM | [26] > 100 µM | [27] > 100 µM | [28] > 100 µM | [29] > 100 µM | [30] > 100 µM | [31] > 100 µM | [32] > 100 µM | [33] > 100 µM | [34] > 100 µM | [58] > 100 µM | [35] > 100 µM | [36] > 100 µM | [37] > 100 µM | [38] > 100 µM | [39] > 100 µM | [40] > 100 µM | [41] > 100 µM | [42] > 100 µM | [44] > 100 µM | [45] > 100 µM | [46] > 100 µM | [47] 68.2 µM | [48] > 100 µM | [50] > 100 µM | [51] > 100 µM | [52] > 100 µM | [59] > 100 µM | [54] > 100 µM | [55] > 100 µM
> 100 µM: [13]

OCC(O)COc1ccc(F)cc1 (centres undefined)
> 100 µM: [13]
inactive: [1] > 100 µM | [56] > 100 µM | [2] > 100 µM | [3] > 100 µM | [4] > 100 µM | [5] > 100 µM | [6] > 100 µM | [7] > 100 µM | [8] > 100 µM | [9] > 100 µM | [10] > 100 µM | [11] > 100 µM | [12] > 100 µM | [14] > 100 µM | [15] > 100 µM | [16] > 100 µM | [17] > 100 µM | [18] > 100 µM | [19] > 100 µM | [20] > 100 µM | [21] > 100 µM | [22] > 100 µM | [23] > 100 µM | [24] > 100 µM | [25] > 100 µM | [26] > 100 µM | [27] > 100 µM | [28] > 100 µM | [29] > 100 µM | [30] > 100 µM | [31] > 100 µM | [32] > 100 µM | [33] > 100 µM | [34] > 100 µM | [58] > 100 µM | [35] > 100 µM | [37] > 100 µM | [38] > 100 µM | [39] > 100 µM | [40] > 100 µM | [41] > 100 µM | [42] > 100 µM | [43] > 100 µM | [44] > 100 µM | [45] > 100 µM | [46] > 100 µM | [47] > 100 µM | [48] > 100 µM | [49] > 100 µM | [50] > 100 µM | [51] > 100 µM | [52] > 100 µM | [59] > 100 µM | [53] > 100 µM | [54] > 100 µM | [55] > 100 µM

CC1(C)C2CCC13CS(=O)(=O)N1O[C@]13C(=O)O2 (some centres undefined)
> 100 µM: [13]
inactive: [1] > 100 µM | [56] > 100 µM | [2] > 100 µM | [3] > 100 µM | [6] > 100 µM | [7] > 100 µM | [8] > 100 µM | [10] > 100 µM | [11] > 100 µM | [12] > 100 µM | [14] > 100 µM | [15] > 100 µM | [16] > 100 µM | [17] > 100 µM | [18] > 100 µM | [19] > 100 µM | [20] > 100 µM | [21] > 100 µM | [22] > 100 µM | [23] > 100 µM | [24] > 100 µM | [26] > 100 µM | [27] > 100 µM | [28] > 100 µM | [29] > 100 µM | [30] > 100 µM | [31] > 100 µM | [32] > 100 µM | [33] > 100 µM | [34] > 100 µM | [58] > 100 µM | [35] > 100 µM | [36] > 100 µM | [57] > 100 µM | [38] > 100 µM | [39] > 100 µM | [40] > 100 µM | [41] > 100 µM | [42] > 100 µM | [45] > 100 µM | [46] > 100 µM | [47] 60.8 µM | [48] > 100 µM | [49] > 100 µM | [50] > 100 µM | [51] > 100 µM | [52] > 100 µM | [59] > 100 µM | [54] > 100 µM

Source: ChEMBL document CHEMBL1201862, “PubChem BioAssay data set” (2004)
